This note sets out measurements from patent US6617335B1, “Preparation and drug composition of bis-benzyl-isoquinoline class alkaloids” (Kanghong USA, Inc., priority 2002, dated 2003).

Data set [1] relates to P388/adr. The data set can be described thus: In vitro reversal of multi drug resistance to vinblastine in P388/adr cells. Type of data set: cell-based. Particulars: vinblastine against multi drug resistance cell line P388/adr. Here is the method: The IC50 value was in the range of 2-3 μg/mL, the reversal index against P388 was around 20, and most of the compounds completely reversed multi drug resistance of vinblastine-treated tumor cells.

The test system of data set [2] is P388/adr. Nature of the data set: In vivo study of inhibition of MDR activity, nude mice xenografted with P388/adr. The method, then: Method: Using defined characteristics of […] P388/adr cell line in a nude mice model to determine the inhibition of MDR activity. Quantitative subcutaneous injection of P388 cell into the armpit of nude mice was followed for a certain period of time. […] The formulations and a cepharanthine control were administered by intraperitoneal injection for 2 to 4 times a day, and the animals consecutively observed for 10 days. Life span and survival rates were calculated.

Data set [3] has as its system Salmonella typhimurium TA97, TA98, TA100 and TA102. The data set can be described thus: Mutagenicity test (Ames method). Particulars: plate method, dosages 100, 20, 4, 0.8, 0.16. Here is the method:
Determinations were carried out the using Salmonella typhimurium […] mutants types TA97, TA98, TA100 and TA102 to detect the mutagenicity of said compound. Mutagenicity was determined according to the method of Ames. (Ames, B., et al. (1973). An improved bacterial test system for the detection and classification of mutagens and carcinogens. Proc. Natl. Acad. Sci. USA 70: 782-786). In the plate method with dosages of 100, 20, 4, 0.8, and 0.16, compared with the blank control, (self made compound S9), counting the number of reversed mutative colony changed, to decide the mutagenicity of the test compound.

Data set [4] in a line: in vivo. Here is the method: Method: LDs50 values for the compounds of formula (I) were calculated according to the method of Gaddum and Gu Han Yi.
For data set [5], the system named is P388/adr cell line. The data set can be described thus: Isotopic determination of vincristine concentration in the P388/adr cell line. Format: cell-based. As to conditions: P388/adr MDR cells; for inhibition of MDR activity / intracellular isotope marker concentration compared with verapamil: three levels; for intracellular vinca alkaloid concentration, combined therapy vs other known MDR inhibitors (tetrandrine, fangchinoline, cepharanthine): low, middle and high dosages. Here is the method: Method: By using an isotope marker, differences were observed between intracellular vincristine concentrations during combined therapy and single therapy. […] The dosages were arranged in low, middle and high groups in parallel studies, results were calculated in dpm of vincristine concentration in the cell.

Take cepharanthine: in data set [1], the IC50 value turned out to be 11.7 µg/mL.
`COc1ccc2cc1Oc1ccc(cc1)C[C@H]1c3cc(c(OC)cc3CCN1C)Oc1c(OC)c(OC)c(Br)c3c1[C@H](C2)N(C)CC3` [Example 8, 5-bromo-tetrandrine]: the “inhibition of MDR activity of vinblastine against P388/adr compared with cepharanthine (VIII)” value in data set [2] was “significantly stronger”. Also, the “increase of survival rates by the combined therapy” value in data set [2] (combined therapy with vinca alkaloid vs monotherapy, intraperitoneal, observed 10 days) amounted to 37.7%. Further, the “mutagenicity (Ames)” value in data set [3] is listed as “void of mutagenicity”. The LD50 at 1 month in data set [4] (in vivo, route not stated at this place, read-out: acute toxicity LD50) was more than 125 mg/kg. In addition, the “LDs50, intraperitoneal administration” value in data set [4] (intraperitoneal) was more than 368 mg/kg bodyweight. Also, in data set [4] (intravenous), the “LDs50, intravenous administration” value is more than 125 mg/kg bodyweight. The results for the “inhibition of MDR activity / intracellular isotope marker concentration compared with verapamil” value in data set [5] and in data set [5] (listed as Example No. 8) were “corresponding to verapamil” and “comparable to the available agent verapamil”, respectively. Also, the “intracellular vinca alkaloid concentration, combined therapy vs monotherapy” value in data set [5] (isotope marker) is “significantly higher”. Moreover, the “intracellular vinca alkaloid concentration, combined therapy vs other known MDR inhibitors (tetrandrine, fangchinoline, cepharanthine)” value in data set [5] (isotope marker) was “significantly higher”; in data set [5] (isotope marker, listed as Example No. 8) it was “higher”.
For `CCCOc1c(OC)cc2c3c1Oc1cc4c(cc1OC)CCN(C)[C@H]4Cc1ccc(cc1)Oc1cc(ccc1OC)C[C@@H]3N(C)CC2`, the melting point is 175 to 176 °C.
In the case of `COc1cc(Br)c2cc1Oc1ccc(cc1)C[C@H]1c3cc(c(OC)cc3CCN1C)Oc1c(OC)c(OC)c(Br)c3c1[C@H](C2)N(C)CC3` [Example 9, 5,14-dibromo-tetrandrine], the melting point lay within 184 to 185 °C.

What is called LD50 is the dose at which mortality reaches 50%. One may read the melting point as the temperature of the solid-liquid transition.
